Laboratory results from patent EP0906096B1, “USE OF HYDROXYPROLINES FOR THE MANUFACTURE OF A MEDICAMENT FOR INHIBITING LEUKOCYTE INVASION OF TISSUES” (Chephasaar Chem.-Pharm. Fabrik GmbH, priority 1996, dated 1997).

Key:
Blutplättchen = experiment: Ex vivo platelet function after oral intake; assay type: in vivo; conditions: volunteers, 400 - 800 mg
Granulozyten [1] = experiment: Ex vivo adhesion of volunteers' granulocytes to endothelia after oral intake; assay type: in vivo, Menschen
Text: Gesunde Probanden erhielten eine einmalige Dosis von N-Acetylhydroxyprolin zum Zeitpunkt 0. Unmittelbar vorher und zu den genannten Zeitpunkten wurde Blut abgenommen und die Leukozyten mit Hilfe der Lymphoprep-Separation (Histoprep, Biologische Arbeitsgemeinschaft GmbH, Lich, Germany) präpariert. Die Adhäsion wurde wie in M. Hahne et al. (1993), J . Cell Biol. 121, 655 - 664 beschrieben bestimmt. Die durch LPS-Stimulation erhöhte Adhäsion ist evident (⌀ im Vergieich zu LPS, Zeitpunkt ⌀).

Granulozyten [2] = experiment: Adhesion of granulocytes to an endothelial layer (method of Hahne et al. 1993); assay type: cell-based
Text: Gemäß M. Hahne et al. (1993), J. Cell. Biol. 121, 655-664 wurde die IC50-Konzentration von Hydroxyprolinderivaten, die zu einer 50 %igen Reduktion der Adhäsion von Granulozyten an einer Endothelschicht führte, bestimmt. Als besonders wirksam zeigte sich die an R2 acetylierte Verbindung.

[3] = tested on: eosinophiles Lungeninfiltrat; experiment: Acute allergic inflammation: protein-induced eosinophilic lung infiltrate in sensitised guinea pigs; assay type: in vivo, Meerschweinchen
Text: In Modellen der akuten allergischen Entzündung, wie z.

[4] = tested on: ischämisch traumatisiertes Gefäßendothel; experiment: Post-ischaemia model (Nolte et al. 1995), leukocyte adherence in postcapillary venules; assay type: in vivo, Hamster; conditions: 50 mg/kg given 10 min before reperfusion; effect present after 0,5 and 2 hours; in all animals
Procedure: In dem von Nolte et al., Int. J. Microcirc. 15 (suppl 1) (1995), 9 - 16 beschriebenen Postischämiemodell beim Hamster zeigte sich, dass N-Acetylhydroxyprolin (Oxazeprol) bei Dosierungen von 50 mg/kg kurz yor Reperfusion (10 min) gegeben, die Adhäsion der Leukozyten am ischämisch traumatisierten Gefäßendothel um ca. 50 % reduzierte. Dieser Effekt war nach 0,5 und 2 Stunden vorhanden (Abb. 3). Er trat in allen untersuchten Tieren auf. Oxazeprol verhielt sich damit ähnlich wie Buflomidil (ein PDE4-Hemmer), Iloprostol (ein PhI-Analog) und monoklonale Antikörper gegen Selektine, d.h. N-Acetylhydroxyprolin verhinderte spezifisch die im Gefolge einer Noxe (Ischämie) auftretende Leukozytenadhäsion und -invasion ins Gewebe.

[5] = tested on: Lymphozyten und Monozyten; experiment: Ex vivo adhesion of volunteers' lymphocytes and monocytes after oral intake; assay type: in vivo, Menschen; conditions: 400 - 800 mg
[6] = tested on: Carrageenin-Pfotenödem, Adjuvansarthritis, Baumwollgranulom; experiment: Standard inflammation models (carrageenan paw oedema, adjuvant arthritis, cotton granuloma), histology; assay type: in vivo; conditions: short-term and long-term application; histological work-up
[7] = ex vivo, volunteers, single or repeated intake of 400 - 800 mg

Structure (SMILES): CC(=O)N1C[C@H](O)C[C@H]1C(=O)O [N-Acetylhydroxyprolin, N-Acetyl-L-hydroxyprolin]
- Funktion der Blutplättchen (Blutplättchen): nicht tangiert
- Adhäsion der Granulozyten an Endothelien (Granulozyten [1]; [7]): reduzierte Adhäsion
- Dauer des Effekts auf die Granulozytenadhäsion (Granulozyten [1]; [7]): 24 - 48 Stunden
- durch LPS-Stimulation erhöhte Adhäsion (Granulozyten [1]; healthy volunteers, single dose at time 0, after 24 hours (Abb. 2)): weitgehend durch N-Acetylhydroxyprolin gehemmt
- noch meßbar bei (Granulozyten [2]; concentration at which inhibition of granulocyte adhesion is still measurable, unit not given): 10^-9
- IC50 (Granulozyten [2]; concentration giving 50 % reduction of granulocyte adhesion to an endothelial layer, unit inferred): ~100 nM
- Einwanderung von Granulozyten ([3]; late phase): signifikant reduziert
- Einwanderung der eosinophilen Granulozyten ([3]; sensitised guinea pig, protein-induced): keinen meßbaren Effekt
- Reduktion der Adhäsion der Leukozyten am ischämisch traumatisierten Gefäßendothel [4]: ca. 50%
- Effekte auf Lymphozyten und Monozytenadhäsion [5]: verschwanden hingegen nach wenigen Stunden
- Invasion der Granulozyten [6]: deutliche reduzierte Invasion
- Invasion von monozytären Leukozyten [6]: kaum verändert
